Here are results for 4 compounds from US10570179B2, “Substituted urea depsipeptide analogs as activators of the CLPP endopeptidase” (priority 2016, dated 2020).

Values after ≈ are worked out from the molar mass of the structure shown. Where two headings read alike, the source gives them in different places. Numbered stars: 1 amine (or outer) side, 2 acyl side, 3 side chain; on linkers, the order of the positions; unused ones are H or OH. Bridge positions count the residues as written; N and C are the ends. Square brackets hold non-standard residues; d marks the D form. Peptide text beside a SMILES is read from it. * marks the point of attachment. Phe(3-Me) = Cc1cccc(C[C@H](N)C(=O)O)c1; Pro(4R-Me) = C[C@H]1CN[C@H](C(=O)O)C1; Hyp = O=C(O)[C@@H]1C[C@@H](O)CN1; NH(3-Cl-phenyl) = Clc1cccc(N*)c1; NH(4-Cl-phenyl) = Clc1ccc(N*)cc1; NH(4-Et-phenyl) = CCc1ccc(N*)cc1; aThr = C[C@H](O)[C@H](N)C(=O)O; Pip = O=C(O)[C@@H]1CCCCN1; CO = O=C([*:1])[*:2]

For experiment [1], the system named is S. aureus ΔClpP. Description: Minimal inhibitory concentration, microbroth dilution. It is filed as cell-based, Staphylococcus aureus. As to conditions: MIC; ClpP inactivated. How it is done:
(§1) Minimal inhibitory concentrations (“MICs”) were determined using the microbroth dilution method according to Clinical Laboratory Standards Institute (CLSI; National, C.F. C. L. S., Methods for Dilution Antimicrobial Susceptibility Tests for Bacteria Grow aerobically-Seventh Edition: Approved Standard M7-A7, CLSI, Wayne, Pa., USA, 2008) and were read by visual inspection. Two fold serial dilutions of test compound in 100 μL of the appropriate broth media were first prepared in 96-well round bottom microtiter plates (Nalgene Nunc International, Rochester, N.Y., USA). An equivalent volume (100 μL) of bacterial broth inocula containing approximately 10^5 bacterial cfu/mL was added to each well to give final concentrations of test compound starting at 200 μM. The plates were then incubated aerobically at 37° C. All strains were incubated overnight. After incubations, in all cases the MIC was recorded as the lowest concentration of drug that prevented bacterial growth. The bacterial strains for which MIC was determined as described in Table 4.

The target of experiment [2] is T1, S. aureus ClpP (Sa-ClpP) (Staphylococcus aureus, UniProt Q2G036).
T1 construct: made in house; host or cells: E. coli BL21 (DE3)
T1 sequence (Q2G036 whole entry): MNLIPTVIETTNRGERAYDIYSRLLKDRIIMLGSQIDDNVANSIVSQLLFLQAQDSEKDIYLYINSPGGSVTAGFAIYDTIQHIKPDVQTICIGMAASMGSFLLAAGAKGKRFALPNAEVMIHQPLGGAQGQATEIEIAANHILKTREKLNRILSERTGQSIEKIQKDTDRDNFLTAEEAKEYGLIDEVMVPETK
Description: Casein-BODIPY digestion assay (ClpP activation). It is filed as biochemical. How it is done:
The compounds were assayed in a casein digestion assay in order to determine their effect on ClpP activation. Briefly, the assay was carried out using S. aureus ClpP (“Sa-ClpP”) overexpressed in E. coli BL21 (DE3) and purified in a two-step process. Purity of the protein was assessed through SDS PAGE analysis. EC50 evaluations were conducted in triplicate in a 20 μl assay format using a method adapted from Maurizi et al. (Methods Enzymol. (1994) 244:314-331). Each well contained 10 μM saClpP, 25 μg/ml BODIPY FL casein (Invitrogen Corporation, San Diego, Calif.), and test compound in concentrations ranging between 0-1000 μM in assay buffer (50 mM Tris pH 8, 200 mM KCl, and 1 mM TCEP). The reaction took place at 37° C. Fluorescence (excitation 485 nm; emission 528 nm) was measured in five minute intervals over a 45 min period using a BioTek HT fluorescence microplate reader (BioTek Instruments, Inc., Winooski, Vt.). Velocity of each reaction was calculated and data was fit to a dose response curve using GraphPad Prism® software (GraphPad Software, Inc., La Jolla, Calif.). EC50 is the effective concentration of compound which causes 50% activation of S. aureus ClpP in the foregoing BODIPY FL casein assay.
Alternatively, the assay was carried out using EnzCheck Protease Assay (Molecular Probes, Catalog # E6638). The assay was performed in black 384 well, flat bottom, low volume plates (Greiner Bio-One, Monroe, N.C., catalog #784076). 10 μL of Tris.HCl buffer, pH 8.0 with 0.01% Triton X-100 was pipetted into each well using a Well-Mate (Thermo Scientific, Waltham, Mass.). 0.4 μL test compounds or controls (2% DMSO v/v) were added to each well using a Biomek FX liquid handling robot (Beckman Coulter, Indianapolis, Ind.). After addition of test compounds and controls, 10 μL of master mix containing 2 μM Sa-ClpP and 2 μM substrate (Bodipy-FL labeled casein) in Tris.HCl buffer, pH 8.0 with 0.01% (v/v) Triton X-100, was pipetted into each well. All assays were performed in triplicate, under linear velocity conditions. Increase in fluorescent signal following activation of Sa-ClpP by test compounds and controls was measured over time period of 30 mins using filters with excitation at 485±15 nm and emission at 520±25 nm on a PHERAstar FS Multilabel reader (BMG, Cary, N.C.). Instrument gains and enzyme linear velocity conditions were determined and validated using ADEP4, a known Sa-ClpP activator. Data analysis was done by measuring rate of casein degradation over time (slopes). Computed degradation rates (slopes) were normalized to positive (ADEP4) or negative (DMSO) controls. Using nonlinear regression curve fitting EC50 values and % activation were determined using the equation “log [agonist] vs. Response-variable slope (four parameters)-symmetrical” in the program Prism 6 (GraphPad Software, La Jolla, Calif. USA, www.graphpad.com).

Experiment [3] concerns E. faecails. Description: Minimal inhibitory concentration, microbroth dilution. The class given is cell-based. Conditions: Enterococcus faecalis. How it is done:
as §1
For orientation: Broth dilution looks for growth in wells or tubes with falling amounts of substance.

Experiment [4] deals with S. aureus USA 300. The experiment is described as above. The class given is cell-based. Conditions: Staphylococcus aureus. How it is done: as §1
For experiment [5], the system named is MRSA NRS70. Described as above. The class given is cell-based. As to conditions: Staphylococcus aureus. How it is done: as §1
Experiment [6] concerns S. aureus ATCC 29213. The experiment is described as above. The class given is cell-based. Conditions: Staphylococcus aureus. The method, then:
as §1

Setting [7] is: read-out: Minimal Inhibitory Concentrations (μM) E. faecails, MIC.
The mark [8] stands for this setting: USA300, read-out: Minimal Inhibitory Concentrations (μM) S. aureus USA 300, MIC.
Where [9] appears, read: read-out: Minimal Inhibitory Concentrations (μM) MRSA NRS70, MIC.
Where [10] appears, read: ATCC29213, read-out: Minimal Inhibitory Concentrations (μM) S. aureus ATCC 29213, MIC.

`CCc1ccc(NC(=O)N[C@@H](Cc2cccc(C)c2)C(=O)N[C@@H]2C(=O)N3C[C@H](O)C[C@H]3C(=O)N3CCCC[C@H]3C(=O)N[C@@H](C)C(=O)N3CCC[C@H]3C(=O)O[C@H]2C)cc1` [Compound 58, (S)-2-(3-(4-ETHYLPHENYL)UREIDO)-N-((6S,8AS,14AS,16R,20S,21S,23AS)-16-HYDROXY-6,21-DIMETHYL-5,8,14,19,23-PENTAOXOOCTADECAHYDRO-1H,5H,14H,19H-PYRIDO[2,1-I]DIPYRROLO[2,1-C:2′,1′-L][1]OXA[4,7,10,13]TETRAAZACYCLOHEXADECIN-20-YL)-3-(M-TOLYL)PROPANAMIDE] ({NH(4-Et-phenyl)-CO}-[Phe(3-Me)][aThr][Hyp][Pip]AP; ester 2-C): the “Minimal Inhibitory Concentrations (μM) S. aureus ΔClpP” value in experiment [1] was more than 20 µM. A half-maximal effect in experiment [2] (EC50) was put at 270 ± 100 nM. The MIC amounted to 2.5 µM (≈ 2 µg/mL) in experiment [3] (MIC, read-out: Minimal Inhibitory Concentrations (μM) E. faecails); 0.625 µM (≈ 0.501 µg/mL) in experiment [4] (USA300, MIC, read-out: Minimal Inhibitory Concentrations (μM) S. aureus USA 300); 0.625 µM (≈ 0.501 µg/mL) in experiment [5] (MIC, read-out: Minimal Inhibitory Concentrations (μM) MRSA NRS70); 2.5 µM (≈ 2 µg/mL) in experiment [6] (ATCC29213, MIC, read-out: Minimal Inhibitory Concentrations (μM) S. aureus ATCC 29213).
`Cc1cccc(C[C@H](NC(=O)Nc2ccc(Cl)cc2)C(=O)N[C@@H]2C(=O)N3C[C@H](O)C[C@H]3C(=O)N3CCCC[C@H]3C(=O)N[C@@H](C)C(=O)N3C[C@H](C)C[C@H]3C(=O)O[C@H]2C)c1` [Compound 61, (S)-2-(3-(4-CHLOROPHENYL)UREIDO)-N-((2R,6S,8AS,14AS,16R,20S,21S,23AS)-16-HYDROXY-2,6,21-TRIMETHYL-5,8,14,19,23-PENTAOXOOCTADECAHYDRO-1H,5H,14H,19H-PYRIDO[2,1-I]DIPYRROLO[2,1-C:2′,1′-L][1]OXA[4,7,10,13]TETRAAZACYCLOHEXADECIN-20-YL)-3-(M-TOLYL)PROPANAMIDE] ({NH(4-Cl-phenyl)-CO}-[Phe(3-Me)][aThr][Hyp][Pip]A[Pro(4R-Me)]; ester 2-C): the “Minimal Inhibitory Concentrations (μM) S. aureus ΔClpP” value in experiment [1] was more than 20 µM. Moreover, in experiment [2], it took 270 ± 100 nM to reach a half-maximal effect (EC50). Further, the MIC turned out to be 2.5 µM (≈ 2.06 µg/mL) in experiment [3] (setting [7]), 0.156 µM (≈ 0.128 µg/mL) in experiment [4] (setting [8]), 0.156 µM (≈ 0.128 µg/mL) in experiment [5] (setting [9]) and 0.156 µM (≈ 0.128 µg/mL) in experiment [6] (setting [10]).
`Cc1cccc(C[C@H](NC(=O)Nc2cccc(Cl)c2)C(=O)N[C@@H]2C(=O)N3C[C@H](O)C[C@H]3C(=O)N3CCCC[C@H]3C(=O)N[C@@H](C)C(=O)N3C[C@H](C)C[C@H]3C(=O)O[C@H]2C)c1` [Compound 62, (S)-2-(3-(3-CHLOROPHENYL)UREIDO)-N-((2R,6S,8AS,14AS,16R,20S,21S,23AS)-16-HYDROXY-2,6,21-TRIMETHYL-5,8,14,19,23-PENTAOXOOCTADECAHYDRO-1H,5H,14H,19H-PYRIDO[2,1-I]DIPYRROLO[2,1-C:2′,1′-L][1]OXA[4,7,10,13]TETRAAZACYCLOHEXADECIN-20-YL)-3-(M-TOLYL)PROPANAMIDE] ({NH(3-Cl-phenyl)-CO}-[Phe(3-Me)][aThr][Hyp][Pip]A[Pro(4R-Me)]; ester 2-C): the “Minimal Inhibitory Concentrations (μM) S. aureus ΔClpP” value in experiment [1] is more than 20 µM. Also, the response in experiment [2] was half-maximal at 420 ± 100 nM (EC50). For the same compound, the MIC in experiment [3] (setting [7]) was determined as 2.5 µM (≈ 2.06 µg/mL); in experiment [4] (setting [8]), 0.625 µM (≈ 0.514 µg/mL); in experiment [5] (setting [9]), 0.625 µM (≈ 0.514 µg/mL); in experiment [6] (setting [10]), 1.25 µM (≈ 1.03 µg/mL).
Turning to `Cc1cccc(C[C@H](NC(=O)Nc2ccc(Cl)cc2)C(=O)N[C@@H]2C(=O)N3CCC[C@H]3C(=O)N3CCCC[C@H]3C(=O)N[C@@H](C)C(=O)N3C[C@H](C)C[C@H]3C(=O)O[C@H]2C)c1` [Compound 63, (S)-2-(3-(4-CHLOROPHENYL)UREIDO)-3-(M-TOLYL)-N-((2R,6S,8AS,14AS,20S,21S,23AS)-2,6,21-TRIMETHYL-5,8,14,19,23-PENTAOXOOCTADECAHYDRO-1H,5H,14H,19H-PYRIDO[2,1-I]DIPYRROLO[2,1-C:2′,1′-L][1]OXA[4,7,10,13]TETRAAZACYCLOHEXADECIN-20-YL)PROPANAMIDE] ({NH(4-Cl-phenyl)-CO}-[Phe(3-Me)][aThr]P[Pip]A[Pro(4R-Me)]; ester 2-C), the “Minimal Inhibitory Concentrations (μM) S. aureus ΔClpP” value in experiment [1] was more than 20 µM. Besides, in experiment [2], the EC50 (as a rule, the concentration at which the effect is half-maximal) is 400 ± 200 nM. Also, the MIC was 0.313 µM (≈ 0.252 µg/mL) in experiment [3] (setting [7]), 0.313 µM (≈ 0.252 µg/mL) in experiment [4] (setting [8]), 0.313 µM (≈ 0.252 µg/mL) in experiment [5] (setting [9]) and 0.625 µM (≈ 0.504 µg/mL) in experiment [6] (setting [10]).
